Measured values: paper PMC6930555, “Design, Synthesis, and Structural Characterization of Novel Diazaphenothiazines with 1,2,3-Triazole Substituents as Promising Antiproliferative Agents” (Molecules, 2019)

Key:
[1] = system: H3, TP53, CDKN1A, BCL-2 and BAX genes in glioblastoma SNB-19; assay: RT-qPCR gene expression, SNB-19; assay type: cell-based, human; conditions: SNB-19, 0.5 µg/mL, 24 h
Procedure: (§1) In this method the gene transcriptional activities of proliferation marker (H3), cell cycle regulator (TP53 and CDKNIA), and intracellular apoptosis pathway (BCL-2 and BAX) were analyzed. It has been known that the growth, metabolism, and eventual death of the cells in the body are controlled by hundreds of genes working together. The gene encoding histone H3 plays a crucial role in regulation of the expression of the genetic information included in the DNA.
(§2) Genes trancriptional activity (H3, TP53, CDKN1A, BCL-2, and BAX) was evaluated by real time RT-qPCR with OPTICON TM DNA Engine (MJ Research, Watertown, MA, USA) and QuantTect® SYBR® Green RT-PCR Kit (Quiagen, Valencia, CA). Cells were exposed to compound 4 at a 0.5 µg/mL concentration for 24 h. The RNA extraction was made by using Quick-RNA™ Kit MiniPrep (ZYMO […]). Total RNA integrity was analysed in 1.2% agarose electrophoresis with added ethidium bromide. The quantity and purity of extracted total RNA were determined by using spectrophotometric analysis with HP845 (Hewlett Packard, Waldbronn, Germany) spectrophotometer. The statistical analysis was performed using the Statistica 8.0 software. All values were expressed as means ± SE.

[2] = system: lung cancer A549; assay: WST-1 cell proliferation assay, A549; assay type: cell-based, human; conditions: Homo sapiens; A549, WST-1, 72 h; read-out: Anticancer Activity IC50 A549
Procedure: (§3) Encouraged by our previous promising results in the field of antiproliferative activity of dipyridothiazines as well as by the good anticancer activity of the 1,2,3-triazoles, we decided to combine the biological potentials of dipyridothiazines and triazole moieties, hoping to obtain compounds with better activity. The antiproliferative activity of all 20 new 10-substituted 1,2,3-triazole derivatives of dipyridothiazines was tested in vitro against cancer cell lines: glioblastoma SNB-19, colorectal carcinoma Caco-2, lung cancer A549, and breast cancer MDA-MB231 using the WST-1 assay. Normal human fibroblasts NHDF were used as a control.
(§4) All dipyridothiazines with 1,2,3-triazole substituents (1–4)b–f were evaluated for their anticancer activity using four cultured cell lines: SNB-19 (human glioblastoma, DSMZ—German Collection of Microorganisms and Cell Cultures, Braunschweig, Germany), Caco-2 (human colon adenocarcinoma, DSMZ—German Collection of Microorganisms and Cell Cultures, Braunschweig, Germany), A549 (human lung carcinoma, ATCC, Manassas, VA, USA) and MDA-MB231 (human breast adenocarcinoma, ATCC, Manassas, VA, USA), and NHDF (human dermal fibroblast cell line, ATCC, Manassas, VA, USA. The cultured cells were kept at 37 °C and 5% CO2. The cells were seeded (1 × 10^4 cells/well/100 µL DMEM supplemented with 10% FCS and streptomycin and penicillin) using 96-well plates (Corning). The cells were counted in a hemocytometer (Burker’s chamber) using a phase contrast Olympus IX50 microscope equipped with Sony SSC-DC58 AP camera and Olympus DP10 digital camera.
(§5) Antiproliferative effect of the obtained compounds on the cancer cells was determined using the cell proliferation reagent WST-1 assay (Roche Diagnostics, Mannheim, Germany). This assay is based on the viable cell’s ability to cleave the bright red-colored tetrazolium salt (2-(4-iodophenyl)-3-(4-nitrophenyl)-5-(2,4-disulfophenyl)-2H-tetrazolium, monosodium salt) to dark red soluble formazan by cellular enzymes. An increase in the amount of formazan dye formed correlates to the number of metabolically active cells in the culture. The formazan dye produced by metabolically active cells is quantified by a scanning ELISA reader by measuring the absorbance of the dye solution at appropriate wavelengths. The examined cells were exposed to the tested compounds for 72 h at various concentrations between 0.1 μg/mL and 100 μg/mL (prepared initially at concentration of 1 mg/mL in DMSO). The cells were incubated with WST-1 (10 μL) for 1 h and the absorbance of the samples against a background control was measured at 450 nm using a microplate reader with a reference wavelength at 600 nm. The results are expressed as means of at least two independent experiments performed in triplicate.

[3] = system: glioblastoma SNB-19; assay: WST-1 cell proliferation assay, SNB-19; assay type: cell-based, human; conditions: Homo sapiens; SNB-19, WST-1, 72 h; read-out: Anticancer Activity IC50 SNB-19
Procedure: as §3, §4, §5

[4] = system: H3, TP53, CDKN1A, BCL-2 and BAX genes in breast cancer MDA-MB231; assay: RT-qPCR gene expression, MDA-MB231; assay type: cell-based, human
Procedure: as §1, §2

[5] = system: H3, TP53, CDKN1A, BCL-2 and BAX genes in colorectal carcinoma Caco-2; assay: RT-qPCR gene expression, Caco-2; assay type: cell-based, human
Procedure: as §1, §2

[6] = system: breast cancer MDA-MB231; assay: WST-1 cell proliferation assay, MDA-MB231; assay type: cell-based, human; conditions: Homo sapiens, MDA-MB-231; MDA-MB231, WST-1, 72 h; read-out: Anticancer Activity IC50 MDA-MB231
Procedure: as §3, §4, §5

[7] = system: normal human fibroblasts NHDF; assay: WST-1 cytotoxicity assay, normal fibroblasts NHDF; assay type: cell-based; conditions: for IC50: normal human fibroblasts NHDF, WST-1, 72 h
Procedure: as §3, §4, §5

[8] = system: H3, TP53, CDKN1A, BCL-2 and BAX genes in SNB-19, Caco-2, A549 and MDA-MB231; assay: RT-qPCR gene expression, summary over the cancer cell lines; assay type: cell-based, human
Procedure: as §1, §2

[9] = system: H3, TP53, CDKN1A, BCL-2 and BAX genes in lung cancer A549; assay: RT-qPCR gene expression, A549; assay type: cell-based, human; conditions: A549, 0.5 µg/mL, 24 h
Procedure: as §1, §2

[10] = system: colorectal carcinoma Caco-2; assay: WST-1 cell proliferation assay, Caco-2; assay type: cell-based; conditions: Homo sapiens; Caco-2, WST-1, 72 h; read-out: Anticancer Activity IC50 Caco-2
Procedure: (§6) The antiproliferative activity of all 20 new 10-substituted 1,2,3-triazole derivatives of dipyridothiazines was tested in vitro against cancer cell lines: glioblastoma SNB-19, colorectal carcinoma Caco-2, lung cancer A549, and breast cancer MDA-MB231 using the WST-1 assay. Normal human fibroblasts NHDF were used as a control.
as §4, §5

[11] = system: SNB-19, Caco-2, A549 and MDA-MB231 cancer cell lines; assay: WST-1 assay, summary over the cancer cell line panel; assay type: cell-based, human; conditions: Homo sapiens; span over SNB-19, Caco-2, A549, MDA-MB231; read-out: IC50 across all investigated cancer cell lines
Procedure: as §6, §4, §5

For Clc1ccc(Cn2cc(CN3c4cccnc4Sc4cccnc43)nn2)cc1 [1d, 10-[(1-(4-Chlorobenzyl)-1H-1,2,3-triazol-4-yl)methyl]-1,6-diazaphenothiazine], the “BAX number of mRNA copies/μg total RNA” value [1] was 220+/−18 mRNA Copies/μg Total RNA, the “BCL-2 number of mRNA copies/μg total RNA” value [1] was 17497+/−4607 mRNA Copies/μg Total RNA and the “CDKN1A number of mRNA copies/μg total RNA” value (from here on “CDKN1A number”) [1] was 308+/−51 mRNA Copies/μg Total RNA. For the same compound, the “H3 number of mRNA copies/μg total RNA” value [1] was 52+/−11 mRNA Copies/μg Total RNA, the “TP53 number of mRNA copies/μg total RNA” value [1] was 128+/−24 mRNA Copies/μg Total RNA and the IC50 [2] was 250 nM. The IC50 [3] was 4660 nM, the “apoptosis pathway from gene expression ratio BCL-2/BAX (in words)” value ([4]; MDA-MB231) was “activation of the mitochondrial apoptosis” and the “BAX number of mRNA copies/μg total RNA” value ([4]; MDA-MB231, 0.5 µg/mL, 24 h) was 221+/−16 mRNA Copies/μg Total RNA. For the same compound, the “BCL-2 number of mRNA copies/μg total RNA” value ([4]; MDA-MB231, 0.5 µg/mL, 24 h) was 16495+/−4607 mRNA Copies/μg Total RNA, the “CDKN1A number” value ([4]; MDA-MB231, 0.5 µg/mL, 24 h) was 577+/−308 mRNA Copies/μg Total RNA and the “H3 number of mRNA copies/μg total RNA” value ([4]; MDA-MB231, 0.5 µg/mL, 24 h) was 8+/−6 mRNA Copies/μg Total RNA. For the same compound, the “TP53 number of mRNA copies/μg total RNA” value ([4]; MDA-MB231, 0.5 µg/mL, 24 h) was 46+/−20 mRNA Copies/μg Total RNA, the “effect on expression of BCL-2 (in words)” value ([5]; Caco-2) was “slight increase” and the “BAX number of mRNA copies/μg total RNA” value ([5]; Caco-2, 0.5 µg/mL, 24 h) was 969+/−264 mRNA Copies/μg Total RNA. The “BCL-2/BAX gene expression ratio” value ([5]; Caco-2, 0.5 µg/mL, 24 h) was 743, the “BCL-2 number of mRNA copies/μg total RNA” value ([5]; Caco-2, 0.5 µg/mL, 24 h) was 723708+/−217134 mRNA Copies/μg Total RNA and the “CDKN1A number” value ([5]; Caco-2, 0.5 µg/mL, 24 h) was 260+/−21 mRNA Copies/μg Total RNA. For the same compound, the “H3 number of mRNA copies/μg total RNA” value ([5]; Caco-2, 0.5 µg/mL, 24 h) was 45+/−3 mRNA Copies/μg Total RNA, the “TP53 number of mRNA copies/μg total RNA” value ([5]; Caco-2, 0.5 µg/mL, 24 h) was 193+/−16 mRNA Copies/μg Total RNA and the IC50 [6] was 510 nM. The “cytotoxicity against normal human fibroblasts (in words)” value ([7]; NHDF) was “relatively low cytotoxicity”, the IC50 [7] was greater than 100000 nM and the “effect on expression of BCL-2 (in words)” value ([8]; SNB-19, A549 and MDA-MB231) was “remarkably reduced”. For the same compound, the “effect on CDKN1A copies (in words)” value ([8]; all cancer cells) was “strong decline”, the “effect on mRNA copy number of the histone H3 gene (in words)” value ([8]; all cancer lines) was “strongly changed” and the “effect on expression of BAX (in words)” value ([8]; all investigated cancer cell lines) was “decrease”. For the same compound, the “effect on amount of mRNA copies of TP53 (in words)” value ([8]; all investigated cancer lines) was “significantly interfered”, the “BAX number of mRNA copies/μg total RNA” value [9] was 835+/−231 mRNA Copies/μg Total RNA and the “BCL-2/BAX gene expression ratio” value [9] was 18. For the same compound, the “BCL-2 number of mRNA copies/μg total RNA” value [9] was 15631+/−2296 mRNA Copies/μg Total RNA, the “CDKN1A number” value [9] was 969+/−137 mRNA Copies/μg Total RNA and the “H3 number of mRNA copies/μg total RNA” value [9] was 18+/−5 mRNA Copies/μg Total RNA. The “TP53 number of mRNA copies/μg total RNA” value [9] was 54+/−19 mRNA Copies/μg Total RNA, the IC50 [10] was 250 nM and the IC50 [11] was 250 to 4660 nM.

Fc1ccc(Cn2cc(CN3c4ccncc4Sc4ncccc43)nn2)cc1 [4c, 10-[(1-(4-Fluorobenzyl)-1H-1,2,3-triazol-4-yl)methyl]-3,6-diazaphenothiazine] was tested, and the IC50 [2] was 250 nM, the IC50 [3] was 6250 nM and the IC50 [6] was 1970 nM. It also gave an IC50 [7] of 2850 nM, an IC50 [10] of 250 nM and an IC50 [11] of 250 to 6250 nM.
